Data on 6 compounds can be found in patent publication US8822517B2, “Arylosulfonamides for the treatment of CNS diseases” (Adamed SP. Z O.O., priority 2010, dated 2014).

Test [1] addresses T1, serotoninergic 5-HT6 receptor (Homo sapiens, UniProt P50406). Description: Binding assay 5-HT6 (h), [3H]LSD, CHO cells. Set-up: expressed in transfected cells; host or cells: CHO cells. As to conditions: read-out: 5-HT6. The gist of the method: (§1)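 At 1×10^−6 M, compounds were assessed for their effect on specific radioligand binding, computed as total less nonspecific binding (excess unlabelled ligand present).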

For test [2], the target named is T2, dopaminergic D2 receptor (Homo sapiens, UniProt P14416). In words: Cellular functional assay, dopaminergic D2 receptor (agonism/antagonism). Format: cell-based. As to conditions: HEK293. On the procedure:
(§2) The compounds were tested at the concentration of 1×10^−6M.
(§3) In the Tables ag refers to agonism, and antag to antagonism).
Target sequence in this assay (P14416 whole entry): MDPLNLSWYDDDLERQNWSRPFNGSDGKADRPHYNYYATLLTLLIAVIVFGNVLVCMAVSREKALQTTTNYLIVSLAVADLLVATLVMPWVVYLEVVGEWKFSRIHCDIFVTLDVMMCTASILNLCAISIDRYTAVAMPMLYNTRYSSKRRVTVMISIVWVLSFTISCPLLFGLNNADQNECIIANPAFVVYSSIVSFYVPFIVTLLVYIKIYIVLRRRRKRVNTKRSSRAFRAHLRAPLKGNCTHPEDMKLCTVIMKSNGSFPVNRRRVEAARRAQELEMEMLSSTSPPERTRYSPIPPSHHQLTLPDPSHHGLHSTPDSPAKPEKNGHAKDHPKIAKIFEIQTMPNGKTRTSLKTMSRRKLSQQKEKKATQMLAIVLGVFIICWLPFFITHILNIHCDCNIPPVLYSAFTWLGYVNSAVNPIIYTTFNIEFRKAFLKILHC

Test [3] addresses T2, dopaminergic D2 receptor. Description: Binding assay D2S (h), [3H]methyl-spiperone, HEK-293 cells. Details: expressed in transfected cells; host or cells: HEK-293 cells. As to conditions: read-out: D2 [%]. The procedure, abridged: as §1
Target sequence in this assay (P14416 1-414 isoform P14416-2): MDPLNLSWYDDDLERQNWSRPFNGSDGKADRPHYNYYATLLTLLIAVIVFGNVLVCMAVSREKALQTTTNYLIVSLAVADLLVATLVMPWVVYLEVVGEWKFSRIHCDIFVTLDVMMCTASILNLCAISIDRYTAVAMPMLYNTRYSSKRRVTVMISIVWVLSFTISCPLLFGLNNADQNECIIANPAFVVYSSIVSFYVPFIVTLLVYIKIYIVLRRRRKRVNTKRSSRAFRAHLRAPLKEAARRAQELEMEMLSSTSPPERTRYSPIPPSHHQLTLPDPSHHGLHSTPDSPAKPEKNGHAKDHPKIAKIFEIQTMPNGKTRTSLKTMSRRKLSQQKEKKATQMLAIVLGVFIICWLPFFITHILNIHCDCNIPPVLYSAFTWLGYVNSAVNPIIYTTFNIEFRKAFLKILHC
Test [4] has as its target T3, serotoninergic 5-HT1A receptor (Homo sapiens, UniProt P08908).
T3 sequence (P08908 1-422): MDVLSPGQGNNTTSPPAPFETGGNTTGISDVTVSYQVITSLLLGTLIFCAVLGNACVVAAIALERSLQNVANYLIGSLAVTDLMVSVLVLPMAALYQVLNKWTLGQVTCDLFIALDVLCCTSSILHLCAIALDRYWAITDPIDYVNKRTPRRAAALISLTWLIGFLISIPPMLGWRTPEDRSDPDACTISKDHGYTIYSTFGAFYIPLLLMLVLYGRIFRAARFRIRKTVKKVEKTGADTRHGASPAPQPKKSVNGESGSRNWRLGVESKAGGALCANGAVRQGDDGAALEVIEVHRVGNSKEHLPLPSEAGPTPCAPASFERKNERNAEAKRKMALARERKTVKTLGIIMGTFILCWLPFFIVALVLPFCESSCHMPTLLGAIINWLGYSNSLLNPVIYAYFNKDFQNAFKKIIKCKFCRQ
In words: Binding assay 5-HT1A (h), [3H]8-OH-DPAT, HEK-293 cells. Details: expressed in transfected cells; host or cells: HEK-293 cells. As to conditions: read-out: 5-HT1A. The procedure, abridged:
as §1

Test [5] has as its target T1, serotoninergic 5-HT6 receptor. Description: Cellular functional assay, serotoninergic 5-HT6 receptor (agonism/antagonism). As to conditions: for activation at 1 µM: agonist effect, percent of control specific agonist response, compounds tested at 1×10^−6M, read-out: 5-HT6-ag [%]; for inhibition at 1 µM: read-out: 5-HT6-antag. [%]. Type of test: cell-based. On the procedure: as §2, §3

Test [6] concerns the target T4, serotonine transporter (SERT) receptor (Homo sapiens, UniProt P31645).
T4 construct: expressed in transfected cells; host or cells: CHO cells
Description: Binding assay SERT (h), [3H]imipramine, CHO cells. As to conditions: read-out: SERT [%]. The procedure, abridged: as §1

A further test concerns the target T5, adrenergic α2C receptor (Homo sapiens, UniProt P18825).
T5 sequence (P18825 1-462): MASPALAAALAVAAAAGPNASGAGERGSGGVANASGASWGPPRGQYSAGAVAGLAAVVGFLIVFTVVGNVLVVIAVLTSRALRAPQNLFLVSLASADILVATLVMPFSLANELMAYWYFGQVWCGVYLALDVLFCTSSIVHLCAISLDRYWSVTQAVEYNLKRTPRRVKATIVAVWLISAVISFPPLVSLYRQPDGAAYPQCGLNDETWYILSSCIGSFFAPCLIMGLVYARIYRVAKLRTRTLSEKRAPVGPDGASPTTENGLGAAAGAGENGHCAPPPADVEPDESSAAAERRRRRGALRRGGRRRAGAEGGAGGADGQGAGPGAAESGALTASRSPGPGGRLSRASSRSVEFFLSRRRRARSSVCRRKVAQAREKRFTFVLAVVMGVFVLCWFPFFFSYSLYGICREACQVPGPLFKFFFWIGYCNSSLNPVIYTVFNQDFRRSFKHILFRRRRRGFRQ
Description: Binding assay α2C (h), [3H]RX 821002, CHO cells. As to conditions: read-out: α2C [%]. Details: expressed in transfected cells; host or cells: CHO cells. The procedure, abridged: as §1

Test [7] concerns the target histaminergic H1 receptor (Homo sapiens, UniProt P35367). Description: Binding assay H1 (h), [3H]pyrilamine, HEK-293 cells. Details: expressed in transfected cells; host or cells: HEK-293 cells. As to conditions: read-out: H1 [%]. The procedure, abridged: as §1
The target of test [8] is T6, serotoninergic 5-HT7 receptor (Homo sapiens, UniProt P34969). Description: Binding assay 5-HT7 (h), [3H]LSD, CHO cells. Set-up: expressed in transfected cells; host or cells: CHO cells. As to conditions: read-out: 5-HT7. The procedure, abridged:
as §1

In another test the target is T7, muscarinic M3 receptor (Homo sapiens, UniProt P20309).
T7 construct: expressed in transfected cells; host or cells: CHO cells
In words: Binding assay M3 (h), [3H]4-DAMP, CHO cells. As to conditions: read-out: M3 [%]. The procedure, abridged:
as §1

Test [9] addresses T6, serotoninergic 5-HT7 receptor. In words: Cellular functional assay, serotoninergic 5-HT7 receptor (agonism/antagonism). Type of test: cell-based. As to conditions: for activation at 1 µM: agonist effect, percent of control specific agonist response, compounds tested at 1×10^−6M, read-out: 5-HT7-ag [%]; for inhibition at 1 µM: read-out: 5-HT7-antag. [%]. On the procedure: as §2, §3

Test [10] addresses T8, serotoninergic receptor 5-HT2C (Homo sapiens, UniProt P28335).
T8 construct: expressed in transfected cells; host or cells: HEK-293 cells
T8 sequence (P28335 33-458): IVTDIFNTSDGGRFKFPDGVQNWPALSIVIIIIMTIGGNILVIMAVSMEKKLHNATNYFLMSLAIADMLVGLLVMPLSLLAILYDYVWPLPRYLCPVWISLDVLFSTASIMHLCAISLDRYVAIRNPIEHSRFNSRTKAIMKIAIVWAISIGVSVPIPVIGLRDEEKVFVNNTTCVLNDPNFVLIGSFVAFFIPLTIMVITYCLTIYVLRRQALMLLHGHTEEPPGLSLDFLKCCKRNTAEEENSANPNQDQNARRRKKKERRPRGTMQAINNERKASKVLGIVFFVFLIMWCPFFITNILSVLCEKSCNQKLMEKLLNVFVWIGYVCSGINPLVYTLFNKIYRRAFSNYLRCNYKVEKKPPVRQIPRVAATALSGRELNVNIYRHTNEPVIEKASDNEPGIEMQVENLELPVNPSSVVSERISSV
Description: Binding assay 5-HT2C (h), [3H]mesulergine, HEK-293 cells. As to conditions: read-out: 5-HT2C [%]. The gist of the method:
as §1

For a further test, the system named is sigma σ receptor. Description: Binding assay σ (non-selective), [3H]DTG, rat cerebral cortex. As to conditions: percent inhibition of control specific binding; compounds tested at 1×10^−6 M. The procedure, abridged: as §1
Test [11] has as its target serotoninergic 5-HT2A receptor (Homo sapiens, UniProt P28223). In words: Binding assay 5-HT2A (h), [3H]ketanserin, HEK-293 cells. Set-up: expressed in transfected cells; host or cells: HEK-293 cells. As to conditions: read-out: 5-HT2A. The gist of the method: as §1
A further test relates to adrenergic α1 receptor. Description: Binding assay α1 (non-selective), [3H]prazosin, rat cerebral cortex. As to conditions: percent inhibition of control specific binding; compounds tested at 1×10^−6 M. The procedure, abridged:
as §1

For a further test, the target named is dopaminergic D3 receptor (Homo sapiens, UniProt P35462). In words: Binding assay D3 (h), [3H]methyl-spiperone, CHO cells. Set-up: expressed in transfected cells; host or cells: CHO cells. As to conditions: read-out: D3 [%]. The procedure, abridged:
as §1

Chain of histaminergic H1 receptor (P35367 whole entry): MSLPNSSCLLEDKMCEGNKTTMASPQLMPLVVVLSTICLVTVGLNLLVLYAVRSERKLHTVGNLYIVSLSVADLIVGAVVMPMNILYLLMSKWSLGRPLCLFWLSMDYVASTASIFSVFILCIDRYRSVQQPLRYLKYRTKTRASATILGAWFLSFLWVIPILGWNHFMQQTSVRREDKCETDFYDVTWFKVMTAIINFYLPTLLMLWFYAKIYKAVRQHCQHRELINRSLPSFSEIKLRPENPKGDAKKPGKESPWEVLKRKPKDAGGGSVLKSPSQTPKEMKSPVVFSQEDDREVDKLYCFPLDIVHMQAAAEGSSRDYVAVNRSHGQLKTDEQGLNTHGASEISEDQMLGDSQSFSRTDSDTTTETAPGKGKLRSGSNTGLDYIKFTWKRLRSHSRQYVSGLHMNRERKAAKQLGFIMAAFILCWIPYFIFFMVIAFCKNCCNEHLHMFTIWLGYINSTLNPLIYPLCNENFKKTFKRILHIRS
Chain of serotoninergic 5-HT2A receptor (P28223 whole entry): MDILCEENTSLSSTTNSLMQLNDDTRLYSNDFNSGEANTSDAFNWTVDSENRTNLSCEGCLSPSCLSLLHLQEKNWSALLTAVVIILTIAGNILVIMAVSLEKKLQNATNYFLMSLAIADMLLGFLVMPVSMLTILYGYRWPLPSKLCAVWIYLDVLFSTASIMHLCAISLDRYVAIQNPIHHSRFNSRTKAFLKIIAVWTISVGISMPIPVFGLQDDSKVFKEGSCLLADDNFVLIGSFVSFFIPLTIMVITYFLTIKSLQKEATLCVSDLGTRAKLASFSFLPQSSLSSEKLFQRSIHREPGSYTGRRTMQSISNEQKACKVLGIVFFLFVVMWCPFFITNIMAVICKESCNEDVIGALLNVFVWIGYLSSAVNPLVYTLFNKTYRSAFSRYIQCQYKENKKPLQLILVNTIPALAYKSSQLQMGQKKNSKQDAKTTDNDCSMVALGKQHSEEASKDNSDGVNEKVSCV
T1 sequence (P50406 whole entry): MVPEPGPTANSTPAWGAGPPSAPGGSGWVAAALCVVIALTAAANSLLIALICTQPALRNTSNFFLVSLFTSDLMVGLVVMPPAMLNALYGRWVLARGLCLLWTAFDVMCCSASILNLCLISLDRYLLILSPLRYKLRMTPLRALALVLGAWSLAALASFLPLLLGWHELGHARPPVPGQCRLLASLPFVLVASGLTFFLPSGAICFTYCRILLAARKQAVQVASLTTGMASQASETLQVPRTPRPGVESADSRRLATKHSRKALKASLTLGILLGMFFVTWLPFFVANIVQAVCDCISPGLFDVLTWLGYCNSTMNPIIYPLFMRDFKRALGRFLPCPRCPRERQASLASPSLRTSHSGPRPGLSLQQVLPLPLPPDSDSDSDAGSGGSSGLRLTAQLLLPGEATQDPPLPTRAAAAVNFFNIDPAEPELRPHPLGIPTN
T7 sequence (P20309 whole entry): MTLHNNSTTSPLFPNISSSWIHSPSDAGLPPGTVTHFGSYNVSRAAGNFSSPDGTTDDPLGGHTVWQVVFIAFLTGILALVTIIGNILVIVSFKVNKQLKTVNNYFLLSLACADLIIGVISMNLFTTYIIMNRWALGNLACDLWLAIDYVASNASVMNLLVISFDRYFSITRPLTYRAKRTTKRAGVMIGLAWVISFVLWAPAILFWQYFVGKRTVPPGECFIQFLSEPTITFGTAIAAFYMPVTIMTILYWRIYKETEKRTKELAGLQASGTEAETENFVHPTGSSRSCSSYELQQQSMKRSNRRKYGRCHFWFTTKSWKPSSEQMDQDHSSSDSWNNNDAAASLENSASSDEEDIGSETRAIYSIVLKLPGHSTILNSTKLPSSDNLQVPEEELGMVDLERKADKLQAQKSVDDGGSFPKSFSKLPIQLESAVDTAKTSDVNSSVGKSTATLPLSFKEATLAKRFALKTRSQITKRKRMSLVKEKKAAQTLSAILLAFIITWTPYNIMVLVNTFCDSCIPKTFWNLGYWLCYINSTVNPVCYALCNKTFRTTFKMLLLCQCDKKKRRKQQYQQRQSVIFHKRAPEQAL
T4 sequence (P31645 whole entry): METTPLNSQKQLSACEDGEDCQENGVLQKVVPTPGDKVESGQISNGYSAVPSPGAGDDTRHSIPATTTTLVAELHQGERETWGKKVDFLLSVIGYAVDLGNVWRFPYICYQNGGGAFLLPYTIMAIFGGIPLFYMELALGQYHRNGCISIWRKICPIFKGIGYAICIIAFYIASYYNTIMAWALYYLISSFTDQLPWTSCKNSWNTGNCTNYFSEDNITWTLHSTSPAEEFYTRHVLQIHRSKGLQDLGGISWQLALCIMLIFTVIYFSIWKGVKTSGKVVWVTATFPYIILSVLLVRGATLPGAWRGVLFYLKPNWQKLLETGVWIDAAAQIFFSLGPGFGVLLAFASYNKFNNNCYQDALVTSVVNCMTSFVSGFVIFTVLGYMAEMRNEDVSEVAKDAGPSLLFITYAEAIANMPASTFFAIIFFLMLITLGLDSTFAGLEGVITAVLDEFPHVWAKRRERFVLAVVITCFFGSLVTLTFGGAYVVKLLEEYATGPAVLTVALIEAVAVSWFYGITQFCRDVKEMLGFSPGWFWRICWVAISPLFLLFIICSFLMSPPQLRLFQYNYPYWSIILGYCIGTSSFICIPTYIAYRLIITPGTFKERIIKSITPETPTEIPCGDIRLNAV
T6 sequence (P34969 whole entry): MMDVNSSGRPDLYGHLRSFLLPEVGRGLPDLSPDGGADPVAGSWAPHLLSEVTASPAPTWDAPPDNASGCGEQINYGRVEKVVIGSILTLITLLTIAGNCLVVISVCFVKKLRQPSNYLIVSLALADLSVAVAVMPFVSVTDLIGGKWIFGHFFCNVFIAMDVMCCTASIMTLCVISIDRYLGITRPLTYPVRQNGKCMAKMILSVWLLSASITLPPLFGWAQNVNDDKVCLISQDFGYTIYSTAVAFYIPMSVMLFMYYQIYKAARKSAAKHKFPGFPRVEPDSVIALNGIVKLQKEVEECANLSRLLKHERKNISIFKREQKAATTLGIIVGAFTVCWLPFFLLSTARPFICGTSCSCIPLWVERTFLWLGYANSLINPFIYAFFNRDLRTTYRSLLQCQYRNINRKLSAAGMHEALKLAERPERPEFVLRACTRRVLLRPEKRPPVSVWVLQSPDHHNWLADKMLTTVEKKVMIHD
Chain of dopaminergic D3 receptor (P35462 whole entry): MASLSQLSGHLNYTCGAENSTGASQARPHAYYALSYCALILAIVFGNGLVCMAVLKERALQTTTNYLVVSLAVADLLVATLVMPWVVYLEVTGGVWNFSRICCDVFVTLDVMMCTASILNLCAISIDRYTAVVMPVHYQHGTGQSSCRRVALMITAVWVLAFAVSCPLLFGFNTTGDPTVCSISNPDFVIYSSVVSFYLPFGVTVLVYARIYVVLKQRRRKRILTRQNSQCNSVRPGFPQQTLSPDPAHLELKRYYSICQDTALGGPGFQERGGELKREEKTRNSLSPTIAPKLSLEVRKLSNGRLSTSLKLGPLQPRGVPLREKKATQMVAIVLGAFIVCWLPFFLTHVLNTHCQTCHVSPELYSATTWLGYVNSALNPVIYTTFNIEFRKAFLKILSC

On to `O=S(=O)(NCCCCN1CCN(c2cccc3[nH]ccc23)CC1)c1csc2ccccc12` [Compound 32, N-{4-[4-(1H-Indol-4-yl)piperazin-1-yl]butyl}-1-benzothiophene-3-sulphonamide], for which the results for the inhibition at 1 µM (in test [1]; at dopaminergic D2 receptor [2] (read-out: D2-antag. [%]); on dopaminergic D2 receptor [3]) were 23%, 89% and 101%, respectively. Also, the activation at 1 µM at dopaminergic D2 receptor [2] (agonist effect, percent of control specific agonist response (3 μM dopamine for control), 1×10^−6 M, D2S (h), HEK-293 cells, read-out: D2-ag [%]) turned out to be 35%.

With `O=c1[nH]c2ccc(S(=O)(=O)NCCN3CCN(c4nsc5ccccc45)CC3)cc2o1` [Compound 12, N-(2-(4-(1,2-Benzothiazol-3-yl)piperazin-1-yl)ethyl)-2-oxo-3H-1,3-benzoxazole-6-sulphonamide], the inhibition at 1 µM was 99% in test [4]; -2% in [5]; 7% in test [6]; 83% on adrenergic α2C receptor; 79% in [7]; 89% in test [8]. The inhibition at 1 µM in test [1] was 80%; on muscarinic M3 receptor, -9%; in [9], 68%; on dopaminergic D2 receptor [3], 93%; in test [10], 17%; in [11], 99%. At dopaminergic D3 receptor, the inhibition at 1 µM was determined as 92%. In addition, the activation at 1 µM in test [5] and in [9] was -1% each time. The “σ [%]” value with sigma σ receptor was 4%. Also, the “α1 [%]” value in the test with adrenergic α1 receptor was found to be 67%.

For `O=S(=O)(NCCN1CCC(c2noc3cc(F)ccc23)CC1)c1cccc2ccccc12` [Compound 23, N-[2-[4-(6-Fluoro-1,2-benzoxazol-3-yl)piperidin-1-yl]ethyl]naphthalene-1-sulphonamide], the inhibition at 1 µM amounted to 85% in test [4]; 1% in [5]; 68% in test [6]; 99% on adrenergic α2C receptor; 67% in test [7]; 96% in [8]. In addition, the inhibition at 1 µM in [1] was 69%; on muscarinic M3 receptor, -2%; in test [9], 88%; at dopaminergic D2 receptor [3] it was 97%; in [10], 44%; in [11], 100%. Besides, the inhibition at 1 µM at dopaminergic D3 receptor amounted to 93%. Besides, the activation at 1 µM in test [5] and in [9] was 0% in each case. The “σ [%]” value in the test with sigma σ receptor worked out at 82%. The “α1 [%]” value with adrenergic α1 receptor is listed as 97%.

For `O=S(=O)(NCCN1CCN(c2nsc3ccccc23)CC1)c1ccc2ccccc2c1` [Compound 10, N-(2-(4-(1,2-Benzothiazol-3-yl)piperazin-1-yl)ethyl)naphthalene-2-sulphonamide], the inhibition at 1 µM is 97% in [4]; -16% in [5]; 50% in test [6]; 98% on adrenergic α2C receptor; 81% in test [7]; 99% in [8]. The inhibition at 1 µM is 37% in test [1]; -2% on muscarinic M3 receptor; 85% in [9]; 94% on dopaminergic D2 receptor [3]; 54% in test [10]; 99% in test [11]. Besides, the inhibition at 1 µM at dopaminergic D3 receptor came to 97%. In addition, the activation at 1 µM in [5] is 1%; in test [9] it was 0%. The “σ [%]” value in the test on sigma σ receptor amounted to 31%. Besides, the “α1 [%]” value with adrenergic α1 receptor was found to be 79%.

As to `Cc1cccc(S(=O)(=O)NCCN2CCN(c3nsc4ccccc34)CC2)c1` [Compound 11, N-(2-(4-(1,2-Benzothiazol-3-yl)piperazin-1-yl)ethyl)-3-methylbenzenesulphonamide], the inhibition at 1 µM was 99% in test [4]; -10% in test [5]; 1% in test [6]; 94% on adrenergic α2C receptor; 74% in [7]; 99% in test [8]. The inhibition at 1 µM was 54% in [1]; -6% at muscarinic M3 receptor; 85% in test [9]; 89% at dopaminergic D2 receptor [3]; 40% in [10]; 99% in test [11]. For the same compound, the inhibition at 1 µM at dopaminergic D3 receptor stood at 91%. Also, the activation at 1 µM in [5] is -1%; in test [9], 0%. Also, the “σ [%]” value in the test with sigma σ receptor worked out at 21%. In the test with adrenergic α1 receptor, the “α1 [%]” value is 85%.

On to `O=S(=O)(NCCCN1CCC(c2noc3cc(F)ccc23)CC1)c1cccc2ccccc12` [Compound 20, N-[3-[4-(6-Fluoro-1,2-benzoxazol-3-yl)piperidin-1-yl]propyl]naphthalene-1-sulphonamide], for which the inhibition at 1 µM in [4] worked out at 71%; in test [5], 23%; in test [6], 85%; at adrenergic α2C receptor, 99%; in [7], 78%; in test [8] it was 101%. For the same compound, the inhibition at 1 µM in [1] was 85%; at muscarinic M3 receptor it was -9%; in [9], 101%; at dopaminergic D2 receptor [3] it was 98%; in test [10], 75%; in test [11], 100%. Also, the inhibition at 1 µM at dopaminergic D3 receptor amounted to 96%. The activation at 1 µM in test [5] is -2%; in [9], -1%. Also, the “σ [%]” value in the test on sigma σ receptor is reported as 81%. Also, in the test with adrenergic α1 receptor, the “α1 [%]” value was 99%.
